Results as given in the METLIN SMRT retention time set (Domingo-Almenara et al. 2019).

test: gradient 5% acetonitrile 3 min, to 50% in 2 min, to 85% in 15 min, held 3 min, 100 µL/min; details: column: Zorbax Extend-C18 2.1 x 50 mm; eluents: water / acetonitrile, 0.1% formic acid
Outline: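 The system's dead and dwell volumes were 40 μL and 900 μL, with a Zorbax Extend-C18 column (2.1 × 50 mm, 1.8 μm) run at 100 μL/min in water and acetonitrile containing 0.1% formic acid each. Pure standards were analyzed in mixtures of ~100 molecules by HPLC–quadrupole time-of-flight mass spectrometry in positive and negative ionization mode. Retention time was assigned from computationally picked, manually inspected adduct peaks.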

First: Cc1c(-c2cccc(NC(=O)c3cccc(Br)c3)c2)nc2ncccn12
Second: Cc1ccc(NC(=O)N2CCC(n3c(-c4ccoc4)nc4cccnc43)C2)cc1C (stereo not given)
The RP-LC retention time of the first is lower: 696 s for the first, 762 s for the second.

First: CCOC(=O)c1c(C)[nH]c(C(=O)N2CCC(CC(=O)NCc3ccccc3Cl)CC2)c1C
Second: Cc1[nH]c(C)c(S(=O)(=O)N2CCC(C(=O)Nc3cccc(F)c3)CC2)c1C(=O)N1CCCC1
The RP-LC retention time of the first is higher: 813 s for the first, 720 s for the second.

Going from `CC(=O)Nc1cccc(N2CC(C(=O)Nc3ccc(Br)c(C)c3)CC2=O)c1` (stereo not given) to `Cc1nc2cc(N3CC(C(=O)Nc4cccc(C)c4C)CC3=O)ccc2o1` (stereo not given), the RP-LC retention time rises from 703 s to 785 s.

First: CCOc1ccc(-c2cn3ccn(-c4cccc(F)c4)c(=O)c3n2)cc1
Second: CCOc1ccc(-c2noc(Cc3nnc(-c4ccc(F)cc4)o3)n2)cc1
The RP-LC retention time of the first is lower: 846 s for the first, 1050 s for the second.

Going from `Cn1c(=O)sc2cc(S(=O)(=O)N3CCC(C(=O)N4CCCC4)CC3)ccc21` to `CCN(C(=O)CN1C(=O)CCCc2cc(S(=O)(=O)N3CCCCC3)ccc21)c1ccc(OC)cc1`, the RP-LC retention time rises from 702 s to 961 s.

Compared with `Cn1ncc2c3ccccc3n(CCCC(=O)NCCCN3CCOCC3)c2c1=O`, `Cc1ccccc1Cn1nc2c(S(=O)(=O)N3CCOCC3)cccn2c1=O` is higher in RP-LC retention time: 593 s for the first, 794 s for the second.

Compared with `COc1ccc2nc(NC(=O)Nc3ccccc3)sc2c1`, `COc1ccccc1-c1cnn2c(Nc3ccc(NC(C)=O)cc3)cc(C)nc12` is lower in RP-LC retention time: 966 s for the first, 593 s for the second.

First: CN1C(=O)c2cc(C(=O)NCc3ccccc3Br)nn2CC1(C)C(=O)NC1CCCC1 (stereo not given)
Second: CC1(C(=O)NCc2ccc(F)cc2)Cn2cnc(C(=O)Nc3cc(F)ccc3F)c2C(=O)N1C1CC1 (stereo not given)
The RP-LC retention time of the first is lower: 828 s for the first, 847 s for the second.

Going from `Cc1ccc2c(Nc3ccc(Br)cc3)c(C(=O)N3CCOCC3)cnc2n1` to `CCOC(=O)c1cnc2nc(C)ccc2c1Nc1cccc(Cl)c1F`, the RP-LC retention time rises from 608 s to 764 s.

Going from `Cc1ccc(NC(=O)c2cc(C)n3nc(C)cc3n2)c(C)c1` to `CCc1nc(OCC(=O)Nc2ccc(C)cc2Cl)c2ccccc2n1`, the RP-LC retention time falls from 1140 s to 885 s.

Going from `CCN(CC)CCNC(=O)c1c(C)[nH]c(/C=C2\C(=O)Nc3ccc(F)cc32)c1C` to `Cc1ccc(C(=O)Nc2nc(-c3ccc4c(c3)NC(=O)CO4)c(C)s2)cc1`, the RP-LC retention time rises from 700 s to 931 s.

First: CC(C)Cc1nc(C2CN(C(=O)CC3CCCC3)CC23CCCC3)no1 (stereo not given)
Second: COc1ccc(-c2nnc(CC(=O)NC3CCCCCC3)o2)cc1
The RP-LC retention time of the first is higher: 1210 s for the first, 780 s for the second.

First: Cc1ncoc1C(=O)N[C@@H]1CN(S(C)(=O)=O)C[C@H]1CN(C)C
Second: CN(C)C[C@@H]1CN(c2ccncn2)C[C@H]1NC(=O)c1ccc2ccccc2n1
The RP-LC retention time of the first is lower: 516 s for the first, 595 s for the second.

Compared with `COCCNC(=O)C1CCN(C(=O)Nc2ccc(NC(=O)Nc3ccccc3)cc2)CC1`, `CCOc1ccc(S(=O)(=O)N2CCC(C(=O)NCc3ccccn3)CC2)cc1` is lower in RP-LC retention time: 678 s for the first, 658 s for the second.

First: CCc1ccc(Nc2nc(C(=O)NCCc3cccs3)nc3ccccc23)cc1
Second: O=C(NCCc1ccccc1)c1nc(Cn2c(=O)oc3ccccc32)no1
The RP-LC retention time of the first is higher: 907 s for the first, 888 s for the second.

First: Cc1ccc(-n2c(=O)c3c(cc(C)n3C)n(CC(=O)Nc3ccc(C)cc3Cl)c2=O)cc1
Second: CCCN1C(=O)CN(S(=O)(=O)c2ccccc2)CC1(C)C(=O)NCc1ccc(C)cc1 (stereo not given)
The RP-LC retention time of the first is higher: 960 s for the first, 898 s for the second.

Compared with `Cc1nn(-c2ccc(Cl)nn2)c2c1CCC2`, `CSc1ccccc1NC(=O)c1nnn(-c2nc3c(s2)CCCC3)c1C` is higher in RP-LC retention time: 946 s for the first, 972 s for the second.

Compared with `COc1ccc(C2CC(=O)Nc3c(C(=O)O)cn(-c4cccc(F)c4)c32)cc1OC` (stereo not given), `COC1CN(c2cccc(F)c2)C12CCN(S(=O)(=O)Cc1ccccc1F)CC2` (stereo not given) is higher in RP-LC retention time: 728 s for the first, 1170 s for the second.

Compared with `CC(Oc1ccc(C(C)(C)C)cc1)C(=O)N(Cc1ccco1)C1CCS(=O)(=O)C1` (stereo not given), `CCOc1ccc(S(=O)(=O)N2CCCC(C(=O)NCc3cccnc3)C2)cc1` (stereo not given) is lower in RP-LC retention time: 1050 s for the first, 650 s for the second.

Compared with `CCCN1C(=O)COc2ccc(-c3noc(CNS(=O)(=O)c4ccc(F)cc4)n3)cc21`, `CCN1C(=O)COc2cc(-c3noc(C(=O)N4CCN(c5ccccc5)CC4)n3)ccc21` is higher in RP-LC retention time: 884 s for the first, 1030 s for the second.

Compared with `Cc1ccc2oc(N3CCCN(C(=O)c4ccc(-c5noc(C(C)C)n5)cc4)CC3)nc2n1`, `CC(C)c1ccc(-n2nc(N3CCN(C(=O)c4cc5ccccc5[nH]4)CC3)ccc2=O)cc1` is higher in RP-LC retention time: 664 s for the first, 998 s for the second.

First: CCCn1cc(S(=O)(=O)NCc2ccccc2)c2cccnc21
Second: CCn1cc(-c2nc(CC(=O)NCc3ccc(Cl)cc3)cs2)c2cccnc21
The RP-LC retention time of the first is lower: 863 s for the first, 904 s for the second.

Going from `CCC(=O)N(C1CCOCC1)C1CCN(Cc2cc(F)c(F)cc2F)CC1` to `Cc1ccsc1CN1CCc2oc(C)c(C(=O)N3CCOCC3)c2C1`, the RP-LC retention time falls from 608 s to 536 s.

Compared with `COc1ccc(CNC(=O)CSc2nnc(-c3ccccc3)n2-n2cccc2)cc1`, `COc1ccc(CCc2nc(Cn3c(C)nc4ccccc4c3=O)no2)cc1` is higher in RP-LC retention time: 775 s for the first, 858 s for the second.

First: Clc1ccc(-c2nc3cnccn3c2Nc2ccc3c(c2)OCCO3)cc1
Second: Cc1ccc(-c2noc(Cc3nc(-c4cccc(Cl)c4)cs3)n2)cc1
The RP-LC retention time of the first is lower: 891 s for the first, 1040 s for the second.

Compared with `O=C(NCCn1cnc2ccccc2c1=O)C1CC(=O)N(c2n[nH]c3ccccc23)C1` (stereo not given), `Cc1ccccc1C(=O)NCc1ccc2c(c1)ncn2C(C)C` is lower in RP-LC retention time: 632 s for the first, 598 s for the second.

First: CCC(C(=O)Nc1ccc(OC)cc1)n1cnc2nc3c(cc2c1=O)CCCC3 (stereo not given)
Second: CCc1ccc(NC(=O)C2CCc3nc(N4CCOCC4)ncc3C2)cc1 (stereo not given)
The RP-LC retention time of the first is lower: 770 s for the first, 835 s for the second.

Compared with `O=C(Nc1cc(F)ccc1F)C1CCN(C(=O)c2cccn2-c2cccnc2)CC1`, `O=C(C1=CN(c2ccc(Cl)cc2)c2cc(F)ccc2S1(=O)=O)N1CCCC1` is higher in RP-LC retention time: 728 s for the first, 858 s for the second.

Going from `CCOc1ccccc1-n1nnc(C(=O)OC)c1C(=O)OC` to `CCc1c(C(=O)O)nnn1-c1cccc(OC)c1`, the RP-LC retention time falls from 862 s to 704 s.

Going from `CCC(C)NC(=O)c1ccc2ncnc(N3CCCCC3)c2c1` (stereo not given) to `O=C(Cn1nc2c(N3CCCCCC3)nccn2c1=O)Nc1ccc(F)cc1`, the RP-LC retention time rises from 618 s to 715 s.

Compared with `Cc1ccc(Cn2c(N3CCC(C(=O)NCC4CC4)CC3)nc3ccsc3c2=O)cc1`, `O=C(NC1CCCCC1)C1CCN(c2ncccc2-c2nc(-c3ccc(Cl)cc3)no2)CC1` is higher in RP-LC retention time: 879 s for the first, 1230 s for the second.

Going from `CC(C)N1CCn2c(nc3cc(C(=O)NCc4cccc(Cl)c4)ccc32)C1=O` to `COC(=O)c1ncn2c1C(=O)N(Cc1ccc(F)cc1)C(C)(C(=O)NCc1ccc(C)cc1)C2` (stereo not given), the RP-LC retention time rises from 733 s to 772 s.

Compared with `COc1cccc(C(=O)N2C[C@@H]3C[C@H](NC(=O)c4cccnc4)[C@H]2C3)c1OC`, `COc1cccc(OC)c1OCCNCC1CSc2ccccc2O1` (stereo not given) is higher in RP-LC retention time: 619 s for the first, 815 s for the second.

Going from `CCOC(=O)CSc1nnc(NC(=O)c2ccc(S(=O)(=O)N(C)C)cc2)s1` to `Cc1nc(NC(=O)c2ccc(OCc3nc(C4CC4)cs3)cc2)sc1C`, the RP-LC retention time rises from 772 s to 969 s.

Compared with `Cc1noc(C)c1-c1ccc(S(=O)(=O)NC2CC2)cc1`, `Cc1noc(C)c1CCNC(=O)CN1C(=O)C2CCCCN2c2ccc(S(=O)(=O)N(C)C)cc21` (stereo not given) is higher in RP-LC retention time: 786 s for the first, 796 s for the second.

Going from `CNC(=O)C1CCCN(c2nc3ncn(CC(=O)Nc4ccc(C(C)C)cc4)c(=O)c3s2)C1` (stereo not given) to `CC(=O)N1CCCC(c2nc(CNC(=O)C(C)C)cs2)C1` (stereo not given), the RP-LC retention time falls from 731 s to 609 s.

Going from `CCOCCCNC(=O)C(Cc1c[nH]c2ccccc12)NC(=O)C1CCC(C)CC1` (stereo not given) to `O=C(NCC1CCN(C(=O)Oc2ccccc2)CC1)c1ccsc1`, the RP-LC retention time falls from 839 s to 739 s.

Compared with `O=C(CN1CC=C(c2cnn(-c3ccc(F)cc3)c2)CC1)NCc1ccco1`, `O=C(Cn1nc2ncccn2c1=O)NCc1ccco1` is lower in RP-LC retention time: 658 s for the first, 539 s for the second.

Compared with `CCn1cc(S(=O)(=O)N2CCCn3nc(-c4cccs4)cc3C2)cn1`, `COc1ccc(-c2nnc(-c3cccc(S(=O)(=O)N4CCCC4)c3)o2)cc1` is higher in RP-LC retention time: 816 s for the first, 963 s for the second.

Going from `Cc1cc(Cl)ccc1NC(=O)N1CCCC1c1nnc2n1CCN(C)CC2` (stereo not given) to `CN1CCC(OC2CCN(C(=O)c3ccc(Cl)s3)CC2)CC1`, the RP-LC retention time rises from 584 s to 609 s.

Compared with `CCN1CCN(C2CCN(C(=O)c3cc(C)cc(C)c3)CC2)C1=O`, `O=C(c1ccc2c(c1)OCO2)N1CCC(c2nc(C3CC3)no2)C1` (stereo not given) is higher in RP-LC retention time: 728 s for the first, 740 s for the second.

Compared with `CCCc1noc(-c2cccnc2N2CCCN(Cc3cc(F)cc(F)c3)CC2)n1`, `CCCCn1c(=O)c2ccccc2n(Cc2nc(-c3ccc(OC(C)C)cc3)no2)c1=O` is higher in RP-LC retention time: 733 s for the first, 1290 s for the second.

First: Cc1nc(C(=O)NC2CCCCC2)c(C)o1
Second: CNC(=O)c1n[nH]c2c1CCCCCC2
The RP-LC retention time of the first is higher: 767 s for the first, 685 s for the second.

First: Cc1cccc(NS(=O)(=O)c2cc3n(c2)CCCNC3=O)c1
Second: N#Cc1c(N)sc2c1CCC(c1ccccc1)C2 (stereo not given)
The RP-LC retention time of the first is lower: 652 s for the first, 955 s for the second.

Compared with `COCCN1CCC2(CC1)CN(Cc1ccccc1OC(C)C)Cc1ccccc1O2`, `CCc1nc2c(=O)n(CC(=O)N3CCCCCC3)nc(C)c2s1` is higher in RP-LC retention time: 611 s for the first, 706 s for the second.
